Source: patent US20210221787A1, “NIRAPARIB SOLID STATE FORM” (JOHNSON MATTHEY PUBLIC LIMITED COMPANY, priority 2018, published 2021)
Like-named read-outs stand apart in the source and are kept apart here.

Key:
[1] = cited from earlier work
[2] = for extended stability (retention of Form A by XRPD): with and without foil bag
Source text: “Stabilized” as used herein relates to an anhydrous form of the p-toluenesulfonic acid salt of niraparib that is capable of retaining its form for up to at least 4 months when held in storage in a sealed container with desiccant, with or without being stored in a foiled bag.
XRPD patterns are obtained using a Bruker D8 Advance equipped with a Cu Ka radiation source (λ=1.54 Å), a 9-position sample holder and a LYNXEYE super speed detector. Samples are placed on air sensitive silicon plate holders with zero-background with domes for analysis. One skilled in the art would recognize that the ° 2 θ values and the relative intensity values are generated by performing a peak search on the measured data and the d-spacing values are calculated by the instrument from the ° 2 θ values using Bragg's equation. One skilled in the art would further recognize that the relative intensity for the measured peaks may vary because of sample preparation, orientation and instrument used, for example.

## Cc1ccc(S(=O)(=O)O)cc1.NC(=O)c1cccc2cn(-c3ccc([C@@H]4CCCNC4)cc3)nc12 [Form III, p-toluenesulfonic acid salt of niraparib]
[1]; DVS up to 95% RH
  form conversion on DVS: converted to the monohydrate
[1]; DVS
  hygroscopicity (DVS curve): very hygroscopic
[1]; up to 95% RH
  DVS weight gain: approximately 15.8%

## Cc1ccc(S(=O)(=O)O)cc1.NC(=O)c1cccc2cn(-c3ccc([C@@H]4CCCNC4)cc3)nc12 [Form A, p-toluenesulfonic acid salt of niraparib]
[2]; Form A not made under anhydrous conditions (Examples 1-3), compared with Form A made under anhydrous conditions
  extended stability: does not exhibit extended stability
[2]; made under anhydrous conditions (Example 4 or 5), sealed vials with desiccant, ambient, 30° C./65% RH or 40° C./75% RH
  extended stability (retention of Form A by XRPD): at least 4 months
[2]; stored only in sealed vials, without desiccant
  extended stability (retention of Form A by XRPD): do not exhibit the extended stability
